Test systems include 786-0 renal; HCC-2998 colon; HOP-92 NSCLC; HS 578T breast; MDA-MB-231 breast; MDA-MB-435; MOLT-4 leukemia; NCI-H460 lung; NCI/ADR-RES ovarian; OVCAR-4 ovarian; OVCAR-8 ovarian; RPMI-8226 leukemia; RXF 393 renal; SF-268 CNS; SF-295 CNS; SNB-75 CNS; SW-620 colon; UACC-62 melanoma; UO-31 renal; SR leukemia.
What all share (test): NCI anticancer screen, dose series, 48 h

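96-well plates; 48 h exposure; 5 concentrations. Endpoints by linear interpolation between flanking doses. Not reached: highest tested concentration assigned. TGI: total growth inhibition.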

As for `COc1ccc(/C=C2\CCC(CNc3ccc(OC)cc3)C2=O)cc1` (stereo not given), the TGI was 23.2 µM in the assay on 786-0 renal; 48.1 µM in the assay on HCC-2998 colon; 42.7 µM with HOP-92 NSCLC; > 100 µM in the assay with HS 578T breast; 35.7 µM in the assay with MDA-MB-231 breast; 40.6 µM with MDA-MB-435. The TGI was > 40.8 µM in the assay with MOLT-4 leukemia; > 85.3 µM with NCI-H460 lung; > 100 µM in the assay with NCI/ADR-RES ovarian; 45.7 µM with OVCAR-4 ovarian; 36.3 µM in the assay on OVCAR-8 ovarian; > 24 µM in the assay with RPMI-8226 leukemia. For the same compound, the TGI in the assay with RXF 393 renal was 29.9 µM; in the assay on SF-268 CNS, 34.1 µM; in the assay with SF-295 CNS, > 31.6 µM; in the assay on SNB-75 CNS, 94.5 µM; with SW-620 colon, 12.9 µM; in the assay on UACC-62 melanoma, 48 µM. Moreover, the TGI in the assay on UO-31 renal worked out at 36.1 µM.

On to `CCOc1ccc(/C=N/[N+](C)(C)C)cc1OCC`, for which the TGI in the assay on 786-0 renal, in the assay with HCC-2998 colon, in the assay on HOP-92 NSCLC, in the assay on HS 578T breast, in the assay with MDA-MB-231 breast and in the assay on MDA-MB-435 was > 10 µM in each case. In addition, the TGI with MOLT-4 leukemia, in the assay on NCI/ADR-RES ovarian, with OVCAR-4 ovarian, in the assay with OVCAR-8 ovarian, in the assay with RPMI-8226 leukemia and in the assay with SF-268 CNS was > 10 µM each time. Besides, the TGI with SF-295 CNS, in the assay on SNB-75 CNS, in the assay on SR leukemia, with SW-620 colon and in the assay on UACC-62 melanoma was > 10 µM throughout.

With `CCSc1cc(=O)n(C)c(=O)n1C`, the TGI with 786-0 renal, with HCC-2998 colon, with HOP-92 NSCLC, in the assay on HS 578T breast, in the assay with MDA-MB-231 breast and with MDA-MB-435 was > 100 µM in each case. For the same compound, the TGI with MOLT-4 leukemia, in the assay on NCI-H460 lung, in the assay on NCI/ADR-RES ovarian, in the assay with OVCAR-4 ovarian, in the assay on OVCAR-8 ovarian and in the assay with RPMI-8226 leukemia was > 100 µM in each case. The TGI with RXF 393 renal, in the assay with SF-268 CNS, in the assay on SF-295 CNS, in the assay with SNB-75 CNS, with SW-620 colon and with UACC-62 melanoma was > 100 µM each time. In addition, the TGI in the assay on UO-31 renal was > 100 µM.

As for `CCn1cc(C(=O)O)c(=O)c2cc3c(cc21)S(=O)(=O)CC3`, the TGI with 786-0 renal, with HCC-2998 colon, in the assay with HOP-92 NSCLC, in the assay on HS 578T breast, in the assay on MDA-MB-231 breast and in the assay with MDA-MB-435 was > 100 µM in each case. Further, the TGI in the assay with MOLT-4 leukemia, in the assay with NCI-H460 lung, in the assay with NCI/ADR-RES ovarian, in the assay with OVCAR-4 ovarian, in the assay on OVCAR-8 ovarian and in the assay with RPMI-8226 leukemia was > 100 µM in each case. Also, the TGI with RXF 393 renal, in the assay on SF-268 CNS, in the assay with SF-295 CNS, with SNB-75 CNS, in the assay on SW-620 colon and with UACC-62 melanoma was > 100 µM throughout. Also, the TGI in the assay with UO-31 renal was > 100 µM.

In the case of `COc1cc(COC(=O)N(CC(=O)O)c2ccccc2)c([N+](=O)[O-])cc1OC`, the TGI with 786-0 renal, in the assay with HCC-2998 colon, with HOP-92 NSCLC, in the assay on HS 578T breast, with MDA-MB-435 and with MOLT-4 leukemia was > 100 µM each time. The TGI with NCI-H460 lung, with NCI/ADR-RES ovarian, in the assay on OVCAR-8 ovarian, in the assay with RPMI-8226 leukemia, with RXF 393 renal and with SF-268 CNS was > 100 µM throughout. In addition, the TGI in the assay with SF-295 CNS, in the assay with SNB-75 CNS, with SR leukemia, in the assay with SW-620 colon, in the assay on UACC-62 melanoma and in the assay with UO-31 renal was > 100 µM in each case.

For `CSc1c(C#N)c(N)nc2c(N=Nc3ccc(Cl)cc3)c(N)nn12`, the TGI came to 7.1 µM in the assay with 786-0 renal; 14.8 µM with HCC-2998 colon; 8.64 µM in the assay on HOP-92 NSCLC; 3.43 µM in the assay on HS 578T breast; 4.85 µM with MDA-MB-231 breast; 28.1 µM in the assay on MDA-MB-435. In addition, the TGI is 5.47 µM with MOLT-4 leukemia; > 45.6 µM in the assay on NCI-H460 lung; 39 µM with NCI/ADR-RES ovarian; 6.68 µM with OVCAR-4 ovarian; 4.15 µM with OVCAR-8 ovarian; 7.12 µM in the assay on RPMI-8226 leukemia. In addition, the TGI with RXF 393 renal was 5.79 µM; with SF-268 CNS, 5.7 µM; in the assay with SF-295 CNS, 62.3 µM; with SNB-75 CNS, 15.3 µM; in the assay on SW-620 colon, 4.49 µM; in the assay with UACC-62 melanoma, 8.77 µM. This compound also gave a TGI in the assay with UO-31 renal of 4.42 µM.

For `COC(=O)c1ccc(C)cc1/C=C1\Cc2ccc(C)cc2C1=O`, the TGI with 786-0 renal is 50 µM; in the assay on HCC-2998 colon, 38.4 µM; in the assay on HOP-92 NSCLC, 35.2 µM; in the assay on HS 578T breast it was 59.4 µM; in the assay with MDA-MB-435, 20.2 µM; in the assay with MOLT-4 leukemia, > 100 µM. Moreover, the TGI in the assay with NCI-H460 lung was > 100 µM; with NCI/ADR-RES ovarian, > 100 µM; in the assay with OVCAR-4 ovarian it was 46.1 µM; in the assay on OVCAR-8 ovarian it was 59 µM; in the assay on RPMI-8226 leukemia, 39.6 µM; in the assay on RXF 393 renal, 31.9 µM. The TGI with SF-268 CNS stood at 48.4 µM; with SF-295 CNS it was 41.1 µM; in the assay on SNB-75 CNS it was 44 µM; with SR leukemia, 9.13 µM; with SW-620 colon it was 51.3 µM; in the assay on UACC-62 melanoma it was 26.7 µM. Also, the TGI in the assay on UO-31 renal turned out to be 26.3 µM.

The values are drawn from PubChem BioAssay (NCI).
